Test results as given in patent publication US20200325127A1, “PYRIDIN-3-YL ACETIC ACID DERIVATIVES AS INHIBITORS OF HUMAN IMMUNODEFICIENCY VIRUS REPLICATION” (priority 2016, published 2020).
pEC50: −log10 of the molar value.

Test system: NL-RLuc virus
Test: Inhibition of HIV replication (NL-RLuc luciferase reporter virus in MT-2 cells)
Format: cell-based
Details: Human immunodeficiency virus 1, MT2, 120 h, read-out: Activity
Text: Inhibition of HIV replication: A recombinant NL-RLuc proviral clone was constructed in which a section of the nef gene from NL4-3 was replaced with the Renilla Luciferase gene. This virus is fully infectious and can undergo multiple cycles of replication in cell culture. In addition, the luciferous reporter provides a simple and easy method for quantitating the extent of virus growth and consequently, the antiviral activity of test compounds. The plasmid pNLRLuc contains the proviral NL-Rluc DNA cloned into pUC18 at the PvuII site. The NL-RLuc virus was prepared by transfection of 293T cells with the plasmid pNLRLuc. Transfections were performed using the LipofectAMINE PLUS kit from Invitrogen (Carlsbad, Calif.) according to the manufacturer and the virus generated was titered in MT-2 cells. For susceptibility analyses, the titrated virus was used to infect MT-2 cells in the presence of compound, and after 5 days of incubation, cells were processed and quantitated for virus growth by the amount of expressed luciferase. Assay media was RPMI 1640 supplemented with 10% heat inactivated fetal bovine serum (FBS), 100 units/ml penicillin G/100 units/ml streptomycin, 10 mM HEPES buffer pH 7.55 and 2 mM L-glutamine. The results from at least 2 experiments were used to calculate the EC50 values. Luciferase was quantitated using the Dual Luciferase kit from Promega (Madison, Wis.). Susceptibility of viruses to compounds was determined by incubation in the presence of serial dilutions of the compound. The 50% effective concentration (EC50) was calculated by using the exponential form of the median effect equation where (Fa)=1/[1+(ED50/drug conc.)^m](Johnson V A, Byington R T. Infectivity Assay. In Techniques in HIV Research. ed. Aldovini A, Walker B D. 71-76. New York: Stockton Press. 1990). Activity equal to A refers to a compound having an EC50≤100 nM, while B and C denote compounds having an EC50 between 100 nM and 1 uM (B) or >1 uM (C).

`COc1cnc(N2CCc3cc(-c4c(C)nc(C)c([C@H](OC(C)(C)C)C(=O)O)c4N4CCC(C)(C)CC4)ccc3C2)nc1` [Compound 34] and `Cc1nc(C)c([C@H](OC(C)(C)C)C(=O)O)c(N2CCC(C)(C)CC2)c1-c1ccc2c(c1)CCN(c1ncc(Cl)cn1)C2` [Compound 23] cannot be ordered by pEC50: > 7.00 for the first, > 7.00 for the second.

`Cc1nc(C)c([C@H](OC(C)(C)C)C(=O)O)c(N2CCC(C)(C)CC2)c1-c1ccc2c(c1)CCN(c1cc(N3CCCC3)ncn1)C2` [Compound 48] and `Cc1cc(N2CCc3cc(-c4c(C)nc(C)c([C@H](OC(C)(C)C)C(=O)O)c4N4CCC(C)(C)CC4)ccc3C2)ncn1` [Compound 19] cannot be ordered by pEC50: > 7.00 for the first, > 7.00 for the second.

First: Cc1nc(C)c([C@H](OC(C)(C)C)C(=O)O)c(N2CCC(C)(C)CC2)c1-c1ccc2c(c1)CCN(c1ncccc1C(=O)O)C2 [Compound 16]
Second: Cc1nc(C)c([C@H](OC(C)(C)C)C(=O)O)c(N2CCC(C)(C)CC2)c1-c1ccc2c(c1)CCN(c1ccncn1)C2 [Compound 20]
The pEC50 of the first is lower: 6.00 to 7.00 for the first, > 7.00 for the second. The second is the more potent here.

`Cc1nc(C)c([C@H](OC(C)(C)C)C(=O)O)c(N2CCC(C)(C)CC2)c1-c1ccc2c(c1)CCN(c1ncncc1-c1ccccc1)C2` [Compound 38] and `Cc1nc(C)c([C@H](OC(C)(C)C)C(=O)O)c(N2CCC(C)(C)CC2)c1-c1ccc2c(c1)CCN(c1nnc(-c3ccccc3)cc1C#N)C2` [Compound 68] cannot be ordered by pEC50: > 7.00 for the first, > 7.00 for the second.

`CCc1ccnc(N2CCc3cc(-c4c(C)nc(C)c([C@H](OC(C)(C)C)C(=O)O)c4N4CCC(C)(C)CC4)ccc3C2)n1` [Compound 32] and `Cc1ccnc(N2CCc3cc(-c4c(C)nc(C)c([C@H](OC(C)(C)C)C(=O)O)c4N4CCC(C)(C)CC4)ccc3C2)n1` [Compound 30] cannot be ordered by pEC50: > 7.00 for the first, > 7.00 for the second.

`CCc1cnc(N2CCc3cc(-c4c(C)nc(C)c([C@H](OC(C)(C)C)C(=O)O)c4N4CCC(C)(C)CC4)ccc3C2)nc1` [Compound 33] and `COc1ccnc(N2CCc3cc(-c4c(C)nc(C)c([C@H](OC(C)(C)C)C(=O)O)c4N4CCC(C)(C)CC4)ccc3C2)n1` [Compound 12] cannot be ordered by pEC50: > 7.00 for the first, > 7.00 for the second.

`COc1cc(N2CCc3cc(-c4c(C)nc(C)c([C@H](OC(C)(C)C)C(=O)O)c4N4CCC(C)(C)CC4)ccc3C2)nc(SC)n1` [Compound 62] and `COc1cc(N2CCc3cc(-c4c(C)nc(C)c([C@H](OC(C)(C)C)C(=O)O)c4N4CCC(C)(C)CC4)ccc3C2)nc(N)n1` [Compound 56] cannot be ordered by pEC50: > 7.00 for the first, > 7.00 for the second.

`Cc1nc(C)c([C@H](OC(C)(C)C)C(=O)O)c(N2CCC(C)(C)CC2)c1-c1ccc2c(c1)CCN(c1nccc(C(F)(F)F)n1)C2` [Compound 11] and `Cc1nc(C)c([C@H](OC(C)(C)C)C(=O)O)c(N2CCC(C)(C)CC2)c1-c1ccc2c(c1)CCN(c1ccnc(C(F)(F)F)n1)C2` [Compound 60] cannot be ordered by pEC50: > 7.00 for the first, > 7.00 for the second.

`Cc1nc(C)c([C@H](OC(C)(C)C)C(=O)O)c(N2CCC(C)(C)CC2)c1-c1ccc2c(c1)CCN(c1cc(Cl)ncn1)C2` [Compound 27] and `Cc1nc(C)c([C@H](OC(C)(C)C)C(=O)O)c(N2CCC(C)(C)CC2)c1-c1ccc2c(c1)CCN(c1cc(N)ncn1)C2` [Compound 42] cannot be ordered by pEC50: > 7.00 for the first, > 7.00 for the second.

`Cc1nc(C)c([C@H](OC(C)(C)C)C(=O)O)c(N2CCC(C)(C)CC2)c1-c1ccc2c(c1)CCN(c1ccc(C(F)(F)F)nn1)C2` [Compound 35] and `COc1ccc(N2CCc3cc(-c4c(C)nc(C)c([C@H](OC(C)(C)C)C(=O)O)c4N4CCC(C)(C)CC4)ccc3C2)nn1` [Compound 47] cannot be ordered by pEC50: > 7.00 for the first, > 7.00 for the second.

`Cc1nc(C)c([C@H](OC(C)(C)C)C(=O)O)c(N2CCC(C)(C)CC2)c1-c1ccc2c(c1)CCN(c1ncnc3c1CCC3)C2` [Compound 52] and `Cc1ncnc(N2CCc3cc(-c4c(C)nc(C)c([C@H](OC(C)(C)C)C(=O)O)c4N4CCC(C)(C)CC4)ccc3C2)c1F` [Compound 24] cannot be ordered by pEC50: > 7.00 for the first, > 7.00 for the second.

`Cc1nc(C)c([C@H](OC(C)(C)C)C(=O)O)c(N2CCC(C)(C)CC2)c1-c1ccc2c(c1)CCN(c1nnc(-c3ccccc3)cc1C(N)=O)C2` [Compound 9] and `Cc1nc(C)c([C@H](OC(C)(C)C)C(=O)O)c(N2CCC(C)(C)CC2)c1-c1ccc2c(c1)CCN(c1nc(-c3ccccc3)cs1)C2` [Compound 3] cannot be ordered by pEC50: > 7.00 for the first, > 7.00 for the second.

`Cc1nc(C)c([C@H](OC(C)(C)C)C(=O)O)c(N2CCC(C)(C)CC2)c1-c1ccc2c(c1)CCN(c1ccnc(C3CC3)n1)C2` [Compound 59] and `Cc1nccc(N2CCc3cc(-c4c(C)nc(C)c([C@H](OC(C)(C)C)C(=O)O)c4N4CCC(C)(C)CC4)ccc3C2)n1` [Compound 41] cannot be ordered by pEC50: > 7.00 for the first, > 7.00 for the second.

`Cc1nc(O)cc(N2CCc3cc(-c4c(C)nc(C)c([C@H](OC(C)(C)C)C(=O)O)c4N4CCC(C)(C)CC4)ccc3C2)n1` [Compound 65] and `Cc1nc(C)c([C@H](OC(C)(C)C)C(=O)O)c(N2CCC(C)(C)CC2)c1-c1ccc2c(c1)CCN(c1cc(O)nc(N)n1)C2` [Compound 66] fall in the same range of pEC50: 6.00 to 7.00 for the first, 6.00 to 7.00 for the second.

`Cc1nc(C)c([C@H](OC(C)(C)C)C(=O)O)c(N2CCC(C)(C)CC2)c1-c1ccc2c(c1)CCN(c1ncnc(N)c1C)C2` [Compound 55] and `Cc1cc(N2CCc3cc(-c4c(C)nc(C)c([C@H](OC(C)(C)C)C(=O)O)c4N4CCC(C)(C)CC4)ccc3C2)nc(N)n1` [Compound 61] cannot be ordered by pEC50: > 7.00 for the first, > 7.00 for the second.

`Cc1nc(C)c([C@H](OC(C)(C)C)C(=O)O)c(N2CCC(C)(C)CC2)c1-c1ccc2c(c1)CCN(c1cc(-n3ccnc3)ncn1)C2` [Compound 49] and `COc1cc(N2CCc3cc(-c4c(C)nc(C)c([C@H](OC(C)(C)C)C(=O)O)c4N4CCC(C)(C)CC4)ccc3C2)ncn1` [Compound 31] cannot be ordered by pEC50: > 7.00 for the first, > 7.00 for the second.

`Cc1nc(C)c([C@H](OC(C)(C)C)C(=O)O)c(N2CCC(C)(C)CC2)c1-c1ccc2c(c1)CCN(c1ccnc(N)n1)C2` [Compound 67] and `CSc1nccc(N2CCc3cc(-c4c(C)nc(C)c([C@H](OC(C)(C)C)C(=O)O)c4N4CCC(C)(C)CC4)ccc3C2)n1` [Compound 39] cannot be ordered by pEC50: > 7.00 for the first, > 7.00 for the second.

`Cc1nc(C)c([C@H](OC(C)(C)C)C(=O)O)c(N2CCC(C)(C)CC2)c1-c1ccc2c(c1)CCN(c1nccc(N3CCOCC3)n1)C2` [Compound 10] and `Cc1nc(C)c([C@H](OC(C)(C)C)C(=O)O)c(N2CCC(C)(C)CC2)c1-c1ccc2c(c1)CCN(c1nccc(C#N)n1)C2` [Compound 26] cannot be ordered by pEC50: > 7.00 for the first, > 7.00 for the second.

`Cc1nc(C(F)(F)F)nc(N2CCc3cc(-c4c(C)nc(C)c([C@H](OC(C)(C)C)C(=O)O)c4N4CCC(C)(C)CC4)ccc3C2)c1C` [Compound 58] and `CSc1nc(N2CCc3cc(-c4c(C)nc(C)c([C@H](OC(C)(C)C)C(=O)O)c4N4CCC(C)(C)CC4)ccc3C2)cc(C(F)(F)F)n1` [Compound 63] cannot be ordered by pEC50: > 7.00 for the first, > 7.00 for the second.

`Cc1cc(N2CCc3cc(-c4c(C)nc(C)c([C@H](OC(C)(C)C)C(=O)O)c4N4CCC(C)(C)CC4)ccc3C2)nc(C(C)C)n1` [Compound 44] and `Cc1nc(NC(C)(C)C)cc(N2CCc3cc(-c4c(C)nc(C)c([C@H](OC(C)(C)C)C(=O)O)c4N4CCC(C)(C)CC4)ccc3C2)n1` [Compound 64] cannot be ordered by pEC50: > 7.00 for the first, > 7.00 for the second.

For `Cc1nc(C)c([C@H](OC(C)(C)C)C(=O)O)c(N2CCC(C)(C)CC2)c1-c1ccc2c(c1)CCN(c1cc(Cl)cnn1)C2` [Compound 28], the pEC50 was > 7.00.

Same assay, conditions: Human immunodeficiency virus 1, MT2, 120 h, read-out: EC50 μM

Point of comparison: `Cc1nc(C)c([C@H](OC(C)(C)C)C(=O)O)c(N2CCC(C)(C)CC2)c1-c1ccc2c(c1)CCN(c1ccncn1)C2` [Compound 20], EC50 0.002 µM. Against it:
- Cc1nc(C)c([C@H](OC(C)(C)C)C(=O)O)c(N2CCC(C)(C)CC2)c1-c1ccc2c(c1)CCN(c1cc(N3CCCC3)ncn1)C2 [Compound 48] — 1.5-fold higher, 0.003 µM
- Cc1nc(C)c([C@H](OC(C)(C)C)C(=O)O)c(N2CCC(C)(C)CC2)c1-c1ccc2c(c1)CCN(c1nccc3ccccc13)C2 [Compound 78] — 1.5-fold higher, 0.003 µM
- Cc1nc(C)c([C@H](OC(C)(C)C)C(=O)O)c(N2CCC(C)(C)CC2)c1-c1ccc2c(c1)CCN(c1nc(N(C)C)c3ccccc3n1)C2 [Compound 82] — 2-fold lower, 0.001 µM
- COc1cc(N2CCc3cc(-c4c(C)nc(C)c([C@H](OC(C)(C)C)C(=O)O)c4N4CCC(C)(C)CC4)ccc3C2)nc(SC)n1 [Compound 62] — 2-fold higher, 0.004 µM
- Cc1nc(C)c([C@H](OC(C)(C)C)C(=O)O)c(N2CCC(C)(C)CC2)c1-c1ccc2c(c1)CCN(c1ccc(C(F)(F)F)nn1)C2 [Compound 35] — 5-fold higher, 0.01 µM
- COc1ccc2cnc(N3CCc4cc(-c5c(C)nc(C)c([C@H](OC(C)(C)C)C(=O)O)c5N5CCC(C)(C)CC5)ccc4C3)nc2c1 [Compound 74] — 3-fold higher, 0.006 µM
- Cc1nc(C)c([C@H](OC(C)(C)C)C(=O)O)c(N2CCC(C)(C)CC2)c1-c1ccc2c(c1)CCN(c1ncc3ccccc3n1)C2 [Compound 73] — the same, 0.002 µM
- Cc1nc(C)c([C@H](OC(C)(C)C)C(=O)O)c(N2CCC(C)(C)CC2)c1-c1ccc2c(c1)CCN(c1ncnc(N)c1C)C2 [Compound 55] — 2-fold higher, 0.004 µM
- Cc1nc(C)c([C@H](OC(C)(C)C)C(=O)O)c(N2CCC(C)(C)CC2)c1-c1ccc2c(c1)CCN(c1ccc3cnccc3n1)C2 [Compound 70] — 4-fold lower, 0.0005 µM
- Cc1nc(C)c([C@H](OC(C)(C)C)C(=O)O)c(N2CCC(C)(C)CC2)c1-c1ccc2c(c1)CCN(c1nc(C(F)(F)F)cc3ccccc13)C2 [Compound 79] — 3.5-fold higher, 0.007 µM
- Cc1nc2ccccc2nc1N1CCc2cc(-c3c(C)nc(C)c([C@H](OC(C)(C)C)C(=O)O)c3N3CCC(C)(C)CC3)ccc2C1 [Compound 87] — 5-fold higher, 0.01 µM
- Cc1nc(C)c([C@H](OC(C)(C)C)C(=O)O)c(N2CCC(C)(C)CC2)c1-c1ccc2c(c1)CCN(c1cc(O)nc(N)n1)C2 [Compound 66] — 160-fold higher, 0.32 µM
- COc1ccc2ncnc(N3CCc4cc(-c5c(C)nc(C)c([C@H](OC(C)(C)C)C(=O)O)c5N5CCC(C)(C)CC5)ccc4C3)c2c1 [Compound 81] — the same, 0.002 µM
- Cc1nc(C)c([C@H](OC(C)(C)C)C(=O)O)c(N2CCC(C)(C)CC2)c1-c1ccc2c(c1)CCN(c1nccc3ncncc13)C2 [Compound 86] — 2-fold lower, 0.001 µM
